According to patent US20250210128A1, “COMPUTER-IMPLEMENTED DESIGN OF PEPTIDE:RECEPTOR SIGNALING COMPLEXES FOR ENHANCED CHEMOTAXIS” (Ecole Polytechnique Federale de Lausanne (EPFL), priority 2022, published 2025):

System: primary human T cells
Test: Boyden chamber migration assay of T cells transduced with CXCR4 variants
Type: cell-based
Conditions: 100 nM wild-type CXCL12 full-length chemokine
Description: T cells transduced and selected for CXCR4 variant expression from 3-6 donors were stained with 1 uM Vybrant DiO cell-labeling solution (Thermo, ref. V22886) in serum-free RPMI 1640+GlutaMax. 40,000 cells in 75 uL were seeded in each well of 96-well Boyden chambers with 5.0 μm pores (Corning, ref. 3388)^42. Reservoirs were filled with 200 uL serum-free RPMI 1640+GlutaMax or supplemented with 100 nM chemokine. The bottom of the attractant reservoir was imaged for migrated cells over the course of 8 hours with a Cytation 5 BioSpa (Biotek) at 37° C. with 5% CO2. Fluorescent spots were counted over time and compared to the no-chemokine control to calculate the migration index (#migrated cells towards attractant/#migrated cells towards no-attractant). The peak migration index was averaged between 3 technical replicates for each transduced donor per attractant concentration were plotted.

Q: For “WT CXCR4: wild-type human CXCR4 (SEQ ID NO: 1; with N-terminal 3xHA-tag SEQ ID NO: 2)”, which “migration (fold-migration over no-chemoattractant control)” value is on record?
A: Its value is “around 1.5 fold”.
